Data taken from patent US11884647B2, “Compounds and methods for targeting pathogenic blood vessels” (THE REGENTS OF THE UNIVERSITY OF CALIFORNIA, priority 2019, dated 2024).

Test system: tumor endothelial cells (LL/2 lung cancer tumor)
Assay: Lung LL2 ex vivo model of tumor angiogenesis
Format: cell-based, mouse
Details: for Cell death: drug treatment two days
In short: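 Mouse LL2 tumor fragments (~0.5×0.5×0.3 mm) embedded in Matrigel and grown in endothelial growth medium at 37° C until endothelial outgrowth (about 4 days) before drug treatment. About 48 h after drug addition, stained 10 min with fluorescein diacetate/propidium iodide; live (green) and dead (red) cells imaged at 2× with fixed channel settings.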

[1] = Mus musculus, Endothelial cell, 48 h, read-out: Cell death

Compound	cytotoxicity at 20 µM [1] [%]	Cell death (Lung LL2 ex vivo, Conc. 40 μm) [%]	further results
CNC(=O)c1ccc2ncc(S(=O)(=O)c3ccc(OC)cc3)c(N3CCC(N4CCCC4CO)CC3)c2c1 (centres unmarked) [compound 336, 4-(4-(2-(hydroxymethyl)pyrrolidin-1-yl)piperidin-1-yl)-3-((4-methoxyphenyl)sulfonyl)-N-methylquinoline-6-carboxamide]	–	–	cytotoxicity at 40 µM [1]: 0%
CCCCCCCCCCCCOc1ccc(S(=O)(=O)c2cnc3ccc([S+](C)[O-])cc3c2N2CCC(N3CCN(CCO)CC3)CC2)cc1 (centres unmarked) [compound 339, 2-(4-(1-(3-((4-(dodecyloxy)phenyl)sulfonyl)-6-(methylsulfinyl)quinolin-4-yl)piperidin-4-yl)piperazin-1-yl)ethan-1-ol]	50	–	–
CCCCCCCCCCCCOc1ccc(S(=O)(=O)c2cnc3ccc([S+](C)[O-])cc3c2N2CCC(N3CCC(N4CCN(CCO)CC4)CC3)CC2)cc1 (centres unmarked) [compound 340, 2-(4-(1′-(3-((4-(dodecyloxy)phenyl)sulfonyl)-6-(methylsulfinyl)quinolin-4-yl)-[1,4′-bipiperidin]-4-yl)piperazin-1-yl)ethan-1-ol]	60	–	–
CCCCCCCCCCCCOc1ccc(S(=O)(=O)c2cnc3ccc([S+](C)[O-])cc3c2N2CCC(N3CCC(N4CCN(C)CC4)CC3)CC2)cc1 (centres unmarked) [compound 341, 3-((4-(dodecyloxy)phenyl)sulfonyl)-4-(4-(4-methylpiperazin-1-yl)-[1,4′-bipiperidin]-1′-yl)-6-(methylsulfinyl)quinoline]	80	–	–
CCCCCCCCCCCCOc1ccc(S(=O)(=O)c2cnc3ccc([S+](C)[O-])cc3c2N2CCC(N3CCC(N4CCCC(O)C4)CC3)CC2)cc1 (centres unmarked) [compound 343, 1″-(3-((4-(dodecyloxy)phenyl)sulfonyl)-6-(methylsulfinyl)quinolin-4-yl)-[1,4′:1′,4″-terpiperidin]-3-ol]	50	–	–
CCCCCCCCCCCCCCOc1ccc(S(=O)(=O)c2cnc3ccc([S+](C)[O-])cc3c2N2CCC(N3CCN(CCO)CC3)CC2)cc1 (centres unmarked) [compound 344, 2-(4-(1-(6-(methylsulfinyl)-3-((4-(tetradecyloxy)phenyl)sulfonyl)quinolin-4-yl)piperidin-4-yl)piperazin-1-yl)ethan-1-ol]	10	–	–
CCCCCCCCCCCCCCOc1ccc(S(=O)(=O)c2cnc3ccc([S+](C)[O-])cc3c2N2CCC(N3CCC(N4CCN(CCO)CC4)CC3)CC2)cc1 (centres unmarked) [compound 345, 2-(4-(1′-(6-(methylsulfinyl)-3-((4-(tetradecyloxy)phenyl)sulfonyl)quinolin-4-yl)-[1,4′-bipiperidin]-4-yl)piperazin-1-yl)ethan-1-ol]	50	–	–
CCCCCCCCCCCCCCOc1ccc(S(=O)(=O)c2cnc3ccc([S](C)[O])cc3c2N2CCC(N3CCC(N4CCCC(O)C4)CC3)CC2)cc1 (centres unmarked) [compound 348, 1″-(6-(methyl(λ^1-oxidanyl)-λ^3-sulfanyl)-3-((4-(tetradecyloxy)phenyl)sulfonyl)quinolin-4-yl)-[1,4′:1′,4″-terpiperidin]-3-ol]	–	–	48 hrs (morphology observations after 48 hours) (Lung LL2 ex vivo, Conc. 20 μm, 48 hrs): * (50% or less of cells vesicularize in cell shape); Cell death (Lung LL2 ex vivo, Conc. 20 μm): 20%
CCCCOc1ccc(S(=O)(=O)c2cnc3ccc(SC)cc3c2N2CCC(N3CCCC3CO)CC2)cc1 (centres unmarked) [compound 350, (1-(1-(3-((4-butoxyphenyl)sulfonyl)-6-(methylthio)quinolin-4-yl)piperidin-4-yl)pyrrolidin-2-yl)methanol]	–	20	–
CCCCOc1ccc(S(=O)(=O)c2cnc3ccc(SC)cc3c2N2CCCN(CCO)CC2)cc1 [compound 351, 2-(4-(3-((4-butoxyphenyl)sulfonyl)-6-(methylthio)quinolin-4-yl)-1,4-diazepan-1-yl)ethan-1-ol]	–	100	–
CCCCOc1ccc(S(=O)(=O)c2cnc3ccc(SC)cc3c2N2CCC3C(COCCN3CC(C)C)C2)cc1 (centres unmarked) [compound 352, 7-(3-((4-butoxyphenyl)sulfonyl)-6-(methylthio)quinolin-4-yl)-1-isobutyldecahydropyrido[4,3-e][1,4]oxazepine]	–	100	–
CCCCOc1ccc(S(=O)(=O)c2cnc3ccc(SC)cc3c2N2CCCN(S(=O)(=O)NCC(F)(F)F)CC2)cc1 [compound 353, 4-(3-((4-butoxyphenyl)sulfonyl)-6-(methylthio)quinolin-4-yl)-N-(2,2,2-trifluoroethyl)-1,4-diazepane-1-sulfonamide]	–	0	–
CCCCOc1ccc(S(=O)(=O)c2cnc3ccc(SC)cc3c2N2CCCN(CC3(O)CCCC3)CC2)cc1 [compound 354, 1-((4-(3-((4-butoxyphenyl)sulfonyl)-6-(methylthio)quinolin-4-yl)-1,4-diazepan-1-yl)methyl)cyclopentan-1-ol]	–	0	–
CCCCOc1ccc(S(=O)(=O)c2cnc3ccc(SC)cc3c2N2CCCN(C3COC3)CC2)cc1 [compound 355, 3-((4-butoxyphenyl)sulfonyl)-6-(methylthio)-4-(4-(oxetan-3-yl)-1,4-diazepan-1-yl)quinoline]	–	0	–
CCCCOc1ccc(S(=O)(=O)c2cnc3ccc(SC)cc3c2N2CCCN(c3nc4ccc(Cl)cc4s3)CC2)cc1 [compound 356, 2-(4-(3-((4-butoxyphenyl)sulfonyl)-6-(methylthio)quinolin-4-yl)-1,4-diazepan-1-yl)-6-chlorobenzo[d]thiazole]	–	0	–
CCCCOc1ccc(S(=O)(=O)c2cnc3ccc(SC)cc3c2N2CCC(=O)N(C)CC2)cc1 [compound 357, 1-(3-((4-butoxyphenyl)sulfonyl)-6-(methylthio)quinolin-4-yl)-4-methyl-1,4-diazepan-5-one]	–	0	–
CCCCOc1ccc(S(=O)(=O)c2cnc3ccc(SC)cc3c2N2CCCN(C3CCSCC3)CC2)cc1 [compound 358, 3-((4-butoxyphenyl)sulfonyl)-6-(methylthio)-4-(4-(tetrahydro-2H-thiopyran-4-yl)-1,4-diazepan-1-yl)quinoline]	–	0	–
CCCCOc1ccc(S(=O)(=O)c2cnc3ccc(SC)cc3c2N2CCCN(C3CCS(=O)(=O)CC3)CC2)cc1 [compound 359, 4-(4-(3-((4-butoxyphenyl)sulfonyl)-6-(methylthio)quinolin-4-yl)-1,4-diazepan-1-yl)tetrahydro-2H-thiopyran 1,1-dioxide]	–	20	–
CNC(=O)c1ccc2ncc(S(=O)(=O)c3ccc(OC)cc3)c(NC)c2c1 [compound 360, 3-((4-methoxyphenyl)sulfonyl)-N-methyl-4-(methylamino)quinoline-6-carboxamide]	–	20	–
CCCCCCCCCCCCOc1ccc(S(=O)(=O)c2cnc3ccc([S+](C)[O-])cc3c2N2CCC(N3CCN(CCO)CC3)CC2)cc1F (centres unmarked) [compound 362, 2-(4-(1-(3-((4-(dodecyloxy)-3-fluorophenyl)sulfonyl)-6-(methylsulfinyl)quinolin-4-yl)piperidin-4-yl)piperazin-1-yl)ethanol]	20	–	–
CCCCCCCCCCCCOc1ccc(S(=O)(=O)c2cnc3ccc([S+](C)[O-])cc3c2N2CCC(N3CCC(N4CCCCC4)CC3)CC2)cc1F (centres unmarked) [compound 363, 4-([1,4′:1′,4″-terpiperidin]-1″-yl)-3-((4-(dodecyloxy)-3-fluorophenyl)sulfonyl)-6-(methylsulfinyl)quinoline]	30	–	–
CCCCCCCCCCCCOc1ccc(S(=O)(=O)c2cnc3ccc([S+](C)[O-])cc3c2N2CCC(N3CCC(N4CCCC(O)C4)CC3)CC2)cc1F (centres unmarked) [compound 364, 1″-(3-((4-(dodecyloxy)-3-fluorophenyl)sulfonyl)-6-(methylsulfinyl)quinolin-4-yl)-[1,4′:1′,4″- terpiperidin]-3-ol]	30	–	–
CCCCCCCCCCCCCCOc1ccc(S(=O)(=O)c2cnc3ccc([S+](C)[O-])cc3c2N2CCC(N3CCN(CCO)CC3)CC2)cc1F (centres unmarked) [compound 365, 2-(4-(1-(3-((3-fluoro-4-(tetradecyloxy)phenyl)sulfonyl)-6-(methylsulfinyl)quinolin-4-yl)piperidin-4-yl)piperazin-1-yl)ethanol]	20	–	–
CCCCCCCCCCCCCCOc1ccc(S(=O)(=O)c2cnc3ccc([S+](C)[O-])cc3c2N2CCC(N3CCC(N4CCCCC4)CC3)CC2)cc1F (centres unmarked) [compound 366, 4-([1,4′:1′,4″-terpiperidin]-1″-yl)-3-((3-fluoro-4-(tetradecyloxy)phenyl)sulfonyl)-6-(methylsulfinyl)quinoline]	10	–	–
CCCCCCCCCCCCCCOc1ccc(S(=O)(=O)c2cnc3ccc([S+](C)[O-])cc3c2N2CCC(N3CCC(N4CCCC(O)C4)CC3)CC2)cc1F (centres unmarked) [compound 367, 1″-(3-((3-fluoro-4-(tetradecyloxy)phenyl)sulfonyl)-6-(methylsulfinyl)quinolin-4-yl)-[1,4′:1′,4″- terpiperidin]-3-ol]	5	–	–
CCCCCCCCCCCCOc1ccc(S(=O)(=O)c2cnc3ccc([S+](C)[O-])cc3c2N2CCC(N3CCC(N4CCN(CCO)CC4)CC3)CC2)cc1F (centres unmarked) [compound 368, 2-(4-(1′-(3-((4-(dodecyloxy)-3-fluorophenyl)sulfonyl)-6-(methylsulfinyl)quinolin-4-yl)-[1,4′-bipiperidin]-4-yl)piperazin-1-yl)ethanol]	20	–	–
CCCCCCCCCCCCOc1ccc(S(=O)(=O)c2cnc3ccc([S+](C)[O-])cc3c2N2CCC(N3CCC(N4CCN(C)CC4)CC3)CC2)cc1F (centres unmarked) [compound 370, 3-((4-(dodecyloxy)-3-fluorophenyl)sulfonyl)-4-(4-(4-methylpiperazin-1-yl)-[1,4′-bipiperidin]-1′-yl)-6-(methylsulfinyl)quinoline]	20	–	–
CCCCCCCCCCCCCCOc1ccc(S(=O)(=O)c2cnc3ccc([S+](C)[O-])cc3c2N2CCC(N3CCC(N4CCN(C)CC4)CC3)CC2)cc1F (centres unmarked) [compound 371, 3-((3-fluoro-4-(tetradecyloxy)phenyl)sulfonyl)-4-(4-(4-methylpiperazin-1-yl)-[1,4′-bipiperidin]-1′-yl)-6-(methylsulfinyl)quinoline]	30	–	–
